Test results reported in patent publication US20080096974A2, “Polyamine-Metal Chelator Conjugates” (University of Florida Research Foundation, Inc., priority 2003, published 2008).
Structures can show the parent of a compound that is named as a salt. Where two headings read alike, the source gives them in different places. Values belong to the molecule of their own block, whether it stands above or below them.

Tests used:
polyamine transporter [1] = settings: L1210 cell suspensions; read-out: Ki, competition for the polyamine transport apparatus (historical numbers); cited from earlier work
[2] = test system: Murine L1210 leukemia cells; settings: cited from earlier work
[3] = test system: Spermidine/spermine N^1-acetyl transferase (SSAT); assay: SSAT activity in treated L1210 cells; format: cell-based, murine
Text: Spermidine/spermine N^1-acetyl transferase (SSAT) activity was based on quantitation of [^14C]-N^1-acetylspermidine formed by acetylation of SPD with [^14C]-acetyl coenzyme A according to the method of Libby, P. R., Bergeron, R. J., Porter, C. W., “Structure-Function Correlations of Polyamine Analog-Induced Increases in Spermidine/Spermine Acetyltransferase Activity,” Biochem. Pharmacol. 38: 1435-1442 (1989). Cells treated with DENSPM were positive controls.

[4] = test system: polyamine pools in L1210 cells; assay: Effect on native polyamine pools in L1210 cells (HPLC); format: cell-based, murine; settings: for activity at 0.2 µM: L1210
Protocol: At the end of the treatment period, cell suspensions were sampled, washed three times in ice-cold, incomplete medium, and pelleted for extraction using 0.6 N perchloric acid, then freeze-fractured in liquid nitrogen/hot water three times. Each supernatant was frozen at −20° C. until analysis of polyamine content by HPLC. […] The buffer consisted of potassium phosphate (10 mM) and EDTA (2 mM), pH 2.9.

[5] = test system: Adenosylmethionine decarboxylase (AdoMet DC); assay: AdoMetDC activity in treated L1210 cells; format: cell-based, murine
Protocol: (§1) Ornithine decarboxylase (ODC) and Adenosylmethionine decarboxylase (AdoMet DC) activities were determined according to the procedures of Seely, J. E., Pegg, A. E., “Ornithine Decarboxylase (Mouse Kidney),” Methods Enzymol. 94: 158-161 (1983) and Pegg, A. E., Pösö, H., “S-Adenosylmethionine Decarboxylase (Rat Liver),” Methods Enzymol. 94: 234-239 (1983), respectively, on the basis of quantitation of ^14CO2 released from [^14C]carboxyl-labeled L-ornithine or S-adenosyl-L-methionine. Included in each assay were untreated L210 cells as negative controls as well as cells treated with DEHSPM, a drug having a known reproducible effect on each enzyme, as positive controls.

L1210 leukemia cells [6] = assay: Intracellular concentration / accumulation of analogue in L1210 cells (HPLC); settings: for intracellular concentration over extracellular treatment concentration: 0.2 μM extracellular
Protocol: At the end of the treatment period, cell suspensions were sampled, washed three times in ice-cold, incomplete medium, and pelleted for extraction using 0.6 N perchloric acid, then freeze-fractured in liquid nitrogen/hot water three times.
During logarithmic growth, cells were treated with the compounds. At the end of the treatment period, cell suspensions were sampled, washed three times in ice-cold, incomplete medium, and pelleted for extraction using 0.6 N perchloric acid, then freeze-fractured in liquid nitrogen/hot water three times. Each supernatant was frozen at −20° C. until analysis of analogue content by HPLC,
Analytical separation was performed on a Waters Symmetry C18 column (250 mm×4.6 mm, 5 μm) with a guard column using a Rainin Instrument Company HPLC system. The buffer employed was sodium octanesulfonate (2.5 mM) in potassium phosphate (25 mM), pH 3.0. Mobile phase A consisted of 5% CH3CN, 95% buffer; mobile phase B consisted of 60% CH3CN, 40% buffer. The solvent gradient program employed a linear gradient that increased from 20% mobile phase B to 40% mobile phase B over 40 min and a 5-min ramp to 100% B over 5 min. Post-column derivatization used a boric acid buffer system (H3BO3, 3.1% w/v; KOH, 2.6% w/v; 2-mercaptoethanol, 0.6% v/v) that contained o-phthaldialdehyde (10 mL of a 4% w/v solution in CH3OH per L of buffer). The flow rate was 0.4 mL/min, isocratic; UV detection (λex, 340 nm; λem, 445 nm) was utilized.
Analytical separation was performed on a reversed-phase Supelco Discovery RP Amide C16 column (150×4.6 mm, 5 μm) on the system described above, and UV detection was at 300 nm. The mobile phases were pumped at a flow rate of 1.5 mL/min. The buffer and mobile phases A and B were the same as described above. The solvent gradient program employed an initial 10-min isocratic portion with 5% mobile phase B (95% A), followed by a linear gradient increase to 80% mobile phase B at 35 min, a 5-min ramp to 100% B held for 10 min, and ramping back to 5% mobile phase B for 8 min (58-65 min total).
In both cases, the concentrations were calculated from the peak area fitted to calibration curves by nonweighted least squares linear regression with Rainin Dynamax HPLC Method Manager software (Rainin Instrument Co.).

polyamine transporter [7] = assay: Competition with [3H]SPD for uptake into L1210 cells (polyamine transporter, Ki); format: cell-based, murine; settings: for Ki: L1210 cell suspensions, read-out: Ki, competition with [3H]SPD for the polyamine transport apparatus
Text: The compounds of interest were studied for their ability to compete with [^3H]SPD for uptake into L1210 leukemia cell suspensions in vitro as described in Bergeron, R. J., Hawthorne, T. R., Vinson, J. R. T., Beck, D. L., Jr., Ingeno, M. J., “Role of the Methylene Backbone in the Antiproliferative Activity of Polyamine Analogues on L1210 Cells,” Cancer Res. 49: 2959-2964 (1989); Bergeron, R. J., McManis, J. S., Liu, C. Z., Feng, Y., Weimar, W. R., Luchetta, G. R., Wu, Q., Ortiz-Ocasio, J., Vinson, J. R. T., Kramer, D., Porter, C., “Antiproliferative Properties of Polyamine Analogues: A Structure-Activity Study,” J. Med. Chem. 37: 3464-3476 (1994); and Bergeron, R. J., Weimar, W. R., Wu, Q., Feng, Y., McManis, J. S., “Polyamine Analogue Regulation of NMDA MK-801 Binding: A Structure-Activity Study,” J. Med. Chem. 39: 5257-5266 (1996). Briefly, cell suspensions were incubated in 1 mL of culture medium containing radiolabeled SPD alone or radiolabeled SPD in the presence of graduated concentrations of a chelator or derivative. At the end of the incubation period, the tubes were centrifuged; the pellet was washed, digested, and neutralized prior to scintillation counting. Lineweaver-Burk plots indicated a simple competitive inhibition with respect to SPD.
The molecules of interest were studied for their ability to compete with [^3H]SPD for uptake into L1210 leukemia cell suspensions in vitro. Briefly, cell suspensions were incubated in 1 mL of culture medium containing radiolabeled SPD alone or radiolabeled SPD in the presence of graduated concentrations of chelator or conjugate. At the end of the incubation period, the tubes were centrifuged; the pellet was washed, digested, and neutralized prior to scintillation counting. Lineweaver-Burk plots indicated simple competitive inhibition with respect to SPD.

[8] = test system: chelator-promoted iron excretion; assay: Iron clearance in the bile duct-cannulated rat; format: in vivo; settings: for iron-clearing efficiency: bile duct-cannulated rat
Protocol: In this model, chelator-promoted iron excretion is measured in both the bile and the urine. Furthermore, because the method allows for collection of multiple bile samples, the kinetics of iron excretion can be determined. In each instance, the drugs were given subcutaneously. L1 and its SPM conjugate (4 and 5) were administered at a dose of 450 μmol/kg and (S)-4′-(HO)-DADFT (8) and its NSPD conjugates (9 and 10) were administered at a dose of 300 μmol/kg, i.e., all at equivalent iron-binding capacity.

[9] = test system: Murine L1210 leukemia cells; assay: L1210 cell growth inhibition (IC50); format: cell-based
Protocol: Murine L1210 leukemia cells were maintained in logarithmic growth as a suspension culture in RPMI-1640 medium (Gibco, Grand Island, N.Y.) containing 10% fetal bovine serum (Gibco), 2% HEPES-MOPS buffer, 1 mM L-glutamine (Gibco), and 1 mM aminoguanidine at 37° C. in a water-jacketed 5% CO2 incubator.
Cells were grown in 25 cm^2 tissue culture flasks in a total volume of 10 mL. Cultures were treated during logarithmic growth (0.5−1.0×10^5 cells/mL) with the compounds of interest, reseeded, and incubated as described in Bergeron, R. J., Müller, R., Bussenius, J., McManis, J. S., Merriman, R. L., Smith, R. E., Yao, H., Weimar, W. R., “Synthesis and Evaluation of Hydroxylated Polyamine Analogues as Antiproliferatives,” J. Med. Chem 43: 224-235 (2000). Cell counting and calculation of percent of control growth were also carried out as described in Bergeron, et al. The IC50 is defined as the concentration of compound necessary to reduce cell growth to 50% of control growth after defined intervals of exposure.

[10] = test system: Ornithine decarboxylase (ODC); assay: ODC activity in treated L1210 cells; format: cell-based, murine
Protocol: as §1

L1210 leukemia cells [11] = settings: extracellular 30 μM; cited from earlier work
[12] = L1210 cells, treatment concentration 100 μM
[13] = rat, 300 μmol/kg subcutaneously
[14] = Mus musculus, 48 h exposure, read-out: IC50, 48 h
[15] = Mus musculus, 96 h exposure, read-out: IC50, 96 h
[16] = rat, 450 μmol/kg subcutaneously

intracellular concentration (analogue accumulation) (L1210 leukemia cells [6]; treatment concentration 100 μM): 3.52 mM
Structure (SMILES): CCCNCCCCNCCCN [MPSPD(N^8), N^8-propylspermidine]
Ki (polyamine transporter [1]): 8.5 µM
IC50 ([2]; 48 h exposure, read-out: IC50, 48 h (historical numbers)): > 100 µM
IC50 ([2]; 96 h exposure, read-out: IC50, 96 h (historical numbers)): 55 µM
SSAT activity, % of control [3]: 500 % of control
putrescine, percent of control [4, 12]: lowered
spermidine, percent of control [4, 12]: lowered
activity at 100 µM ([4]; Mus musculus, L1210 cells, treatment concentration 100 μM, read-out: spermine, percent of control): 103%
AdoMetDC activity, % of control [5]: 64 % of control

Structure (SMILES): COC(=O)c1ccc(C(=O)NCCCNCCCCN)cc1 [Compound 6, N^1-terephthaloylspermidine methyl ester]
Ki (polyamine transporter [7]): 3.1 µM

drug species found in tissues of dosed animals ([8]; rat, subcutaneous): contained largely free acid
IC50 [9, 14]: 40 µM
IC50 [9, 15]: 40 µM
intracellular level (L1210 leukemia cells [6]; extracellular 100 μM): about 70 μM
Structure (SMILES): C[C@]1(C(=O)O)CSC(c2ccc(OCCCCNCCCNCCCN)cc2O)=N1.Cl.Cl.Cl [Compound 10, (S)-4,5-dihydro-2-[2-hydroxy-4-(12-amino-5,9-diazadodecyloxy)phenyl]-4-methyl-4-thiazolecarboxylic acid trihydrochloride]
biliary ferrokinetics (in words) [8, 13]: protracted biliary iron clearance
Ki (polyamine transporter [7]): 73 µM

intracellular level (L1210 leukemia cells [6]; extracellular 100 μM): < 70 µM
Structure (SMILES): NCCCCNCCCNC(=O)c1ccc(C(=O)O)cc1 [Compound 7, N^1-terephthaloylspermidine]
Ki (polyamine transporter [7]): 27 µM
fold increase of Ki of the free acid over the corresponding ester (polyamine transporter [7]; L1210 cells): 9 fold

IC50 [9, 14]: 7 µM
IC50 [9, 15]: 6 µM
Structure (SMILES): CC(=O)N(O)CCCCCNC(=O)CCC(=O)N(O)CCCCCNC(=O)CCC(=O)N(O)CCCCCN [DFO]

Structure (SMILES): Cc1c(O)c(=O)ccn1CCCNCCCCNCCCN (as salt: hydrochloride) [Compound 3, 1-(12-Amino-4,9-diazadodecyl)-2-methyl-3-hydroxy-4(1H)-pyridinone Tetrahydrochloride]
melting point: 216 to 218 °C

IC50 [9, 14]: > 100 µM
IC50 [9, 15]: > 100 µM
intracellular concentration (analogue accumulation) (L1210 leukemia cells [6]; treatment concentration 100 μM): 1.62 mM
Structure (SMILES): CC(=O)NCCCNCCCCNCCCN [AcSPM, N^1-Acetylspermine]
Ki (polyamine transporter [7]): 10 µM
ODC activity, % of control [10]: 25±11 % of control
SSAT activity, % of control [3]: 180±11 % of control
putrescine, percent of control [4, 12]: substantial effect
spermidine, percent of control [4, 12]: slight decrease
spermine, percent of control [4, 12]: increased
AdoMetDC activity, % of control [5]: 86±11 % of control

IC50 [9, 14]: 1.5 µM
IC50 [9, 15]: 1.5 µM
intracellular level (L1210 leukemia cells [6]; extracellular 100 μM): 947 ± 110 µM
Structure (SMILES): CCOC(=O)[C@@]1(C)CSC(c2ccc(OCCCCNCCCNCCCN)cc2O)=N1 [Compound 9]
iron-clearing efficiency ([8]; 300 μmol/kg subcutaneously): 13.6±3.3%
biliary ferrokinetics (in words) [8, 13]: protracted biliary iron clearance
Ki (polyamine transporter [7]): 5.7 µM

IC50 ([9]; 48 h exposure, read-out: IC50, 48 h): 30 µM
IC50 ([9]; 96 h exposure, read-out: IC50, 96 h): 0.2 µM
Structure (SMILES): CCNCCCNCCCCNCCCNCC [DESPM]
intracellular level (previous studies) (L1210 leukemia cells [11]): 400 µM

IC50 [9, 14]: 46 µM
IC50 [9, 15]: 55 µM
intracellular level (L1210 leukemia cells [6]; extracellular 50 μM): 1 µM
Structure (SMILES): Cc1c(O)c(=O)ccn1C [Compound L1, 1,2-Dimethyl-3-hydroxypyridin-4-one]
iron-clearing efficiency ([8]; 450 μmol/kg subcutaneously): 2.2±0.9%
share of excreted iron in the bile [8, 16]: 74%
share of excreted iron in the urine [8, 16]: 26%
ODC activity, % of control [10]: 114±5 % of control
SSAT activity, % of control [3]: 108±58 % of control
putrescine, percent of control ([4]; L1210 cells, treatment 50 μM): remained close to control levels
spermidine, percent of control ([4]; L1210 cells, treatment 50 μM): remained close to control levels
activity at 50 µM ([4]; Mus musculus, L1210 cells, treatment 50 μM, read-out: spermine, percent of control): 127%
AdoMetDC activity, % of control [5]: 120±4 % of control

IC50 [9, 14]: 19 µM
IC50 [9, 15]: 20 µM
intracellular level (L1210 leukemia cells [6]; extracellular 100 μM): ≤ 50 µM
Structure (SMILES): C[C@]1(C(=O)O)CSC(c2ccc(O)cc2O)=N1 [Compound 8, 2-(2,4-dihydroxyphenyl)-4-(S)-methylthiazoline-4-carboxylic acid]
iron-clearing efficiency ([8]; 300 μmol/kg subcutaneously): 1.1±0.6%

intracellular concentration (analogue accumulation) (L1210 leukemia cells [6]; treatment concentration 100 μM): 1.24 mM
Structure (SMILES): CCNCCCNCCCCNCCCN [MESPM, N^1-ethylspermine]

Structure (SMILES): Cc1c(O)c(=O)ccn1CCCNCCCCNCCCN [Compound 3, 1-(12-Amino-4,9-diazadodecyl)-2-methyl-3-hydroxy-4(1H)-pyridinone Tetrahydrochloride]
iron-clearing efficiency ([8]; 450 μmol/kg subcutaneously): 1.8±0.9%
share of excreted iron in the bile [8, 16]: 53%
share of excreted iron in the urine [8, 16]: 47%
IC50 [9, 14]: 0.2 µM
IC50 [9, 15]: 0.2 µM
ODC activity, % of control [10]: 20±4 % of control
SSAT activity, % of control [3]: 275±6 % of control
activity at 0.2 µM ([4]; Mus musculus, read-out: putrescine, percent of control): 33%
activity at 0.2 µM ([4]; Mus musculus, read-out: spermidine, percent of control): 64%
activity at 0.2 µM ([4]; Mus musculus, read-out: spermine, percent of control): 139%
AdoMetDC activity, % of control [5]: 77±11 % of control
intracellular concentration relative to that attained by parent ligand L1 (L1210 leukemia cells [6]): several hundred times higher
intracellular concentration over extracellular treatment concentration (L1210 leukemia cells [6]): more than 1900 fold
intracellular concentration over extracellular treatment concentration (L1210 leukemia cells [6]; listed as 1-(12-amino-4,9-diazadodecyl)-2-methyl-3-hydroxy-4-(1H)-pyridinone): 1900 fold
intracellular level (L1210 leukemia cells [6]; extracellular 0.2 μM): 390 µM
intracellular concentration (analogue accumulation) (L1210 leukemia cells [6]; treatment concentration 0.2 μM): 0.39 mM

IC50 ([9]; exposure time not given, read-out: IC50): > 100 µM
intracellular level (L1210 leukemia cells [6]; extracellular 100 μM): < 20 µM
Structure (SMILES): FC(F)(F)CNCCCNCCCCNCCCNCC(F)(F)F [FDESPM]
competition for / uptake by the polyamine transporter (in words) (polyamine transporter [7]; L1210 cells): poor Ki
